As a reminder, the Emax is the size of the effect at its maximum, as opposed to the concentration needed.

The values that follow come from US10759751B2, “Substituted spirocyclohexanes as muscarinic M1 receptor and/or M4 receptor agonists” (Heptares Therapeutics Limited, priority 2016, dated 2020).

Assay type in all cases: cell-based
Assay [1] deals with T1, human muscarinic M1 receptor (Homo sapiens, UniProt P11229).
T1 sequence (P11229 1-460): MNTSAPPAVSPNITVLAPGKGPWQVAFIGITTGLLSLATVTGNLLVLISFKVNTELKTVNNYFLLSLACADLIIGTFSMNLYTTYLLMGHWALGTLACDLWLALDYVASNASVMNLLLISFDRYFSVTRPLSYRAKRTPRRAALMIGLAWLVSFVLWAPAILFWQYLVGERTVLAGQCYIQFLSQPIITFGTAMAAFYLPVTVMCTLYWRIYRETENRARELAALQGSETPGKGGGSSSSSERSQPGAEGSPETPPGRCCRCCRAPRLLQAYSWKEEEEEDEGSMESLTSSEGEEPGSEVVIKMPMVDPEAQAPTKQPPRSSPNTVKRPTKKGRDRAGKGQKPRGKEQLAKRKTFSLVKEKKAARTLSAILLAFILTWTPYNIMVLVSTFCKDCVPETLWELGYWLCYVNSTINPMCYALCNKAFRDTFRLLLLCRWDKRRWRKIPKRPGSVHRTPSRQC
The experiment in a line: Alphascreen Surefire phospho-ERK1/2 functional assay, M1. Particulars: for EC50: CHO cells stably expressing human M1, phospho-ERK1/2, read-out: pEC50 M1 (converted); for Emax: CHO, read-out: M1 % Emax cf. ACh, CHO cells stably expressing human M1, Emax relative to ACh. In a few lines: (§1)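 The assay used ERK1/2 phosphorylation as a common downstream read-out of Gq/11 and Gi/o receptor activation. CHO cells expressing each human receptor were exposed to agonist for five minutes at 37 °C after overnight serum starvation. Potency (pEC50) and maximal effect (Emax) came from the AlphaScreen signal.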
In general terms: In Alpha technology, singlet oxygen from a donor bead excites a nearby acceptor bead.

The target of assay [2] is T2, human muscarinic M2 receptor (Homo sapiens, UniProt P08172).
T2 sequence (P08172 1-466): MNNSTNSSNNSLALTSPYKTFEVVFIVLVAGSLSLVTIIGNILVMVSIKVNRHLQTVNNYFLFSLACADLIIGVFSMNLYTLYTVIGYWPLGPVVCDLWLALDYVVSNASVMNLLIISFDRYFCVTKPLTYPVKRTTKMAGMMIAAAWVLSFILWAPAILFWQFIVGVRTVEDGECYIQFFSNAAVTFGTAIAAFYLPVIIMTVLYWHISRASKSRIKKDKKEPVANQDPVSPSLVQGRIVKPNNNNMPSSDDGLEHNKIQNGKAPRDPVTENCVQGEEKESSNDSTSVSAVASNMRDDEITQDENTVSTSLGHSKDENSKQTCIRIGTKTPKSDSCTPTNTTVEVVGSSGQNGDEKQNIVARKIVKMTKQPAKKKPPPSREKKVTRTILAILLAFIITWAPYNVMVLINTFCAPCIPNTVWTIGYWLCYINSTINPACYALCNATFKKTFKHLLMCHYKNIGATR
The experiment in a line: Alphascreen Surefire phospho-ERK1/2 functional assay, M2. Particulars: for EC50: CHO cells stably expressing human M2, phospho-ERK1/2, read-out: pEC50 M2 (converted); for Emax: CHO, read-out: M2 % Emax cf. ACh. In a few lines: as §1

Assay [3] concerns the target T3, human muscarinic M4 receptor (Homo sapiens, UniProt P08173).
T3 construct: expressed in transfected cells
T3 sequence (P08173 1-479): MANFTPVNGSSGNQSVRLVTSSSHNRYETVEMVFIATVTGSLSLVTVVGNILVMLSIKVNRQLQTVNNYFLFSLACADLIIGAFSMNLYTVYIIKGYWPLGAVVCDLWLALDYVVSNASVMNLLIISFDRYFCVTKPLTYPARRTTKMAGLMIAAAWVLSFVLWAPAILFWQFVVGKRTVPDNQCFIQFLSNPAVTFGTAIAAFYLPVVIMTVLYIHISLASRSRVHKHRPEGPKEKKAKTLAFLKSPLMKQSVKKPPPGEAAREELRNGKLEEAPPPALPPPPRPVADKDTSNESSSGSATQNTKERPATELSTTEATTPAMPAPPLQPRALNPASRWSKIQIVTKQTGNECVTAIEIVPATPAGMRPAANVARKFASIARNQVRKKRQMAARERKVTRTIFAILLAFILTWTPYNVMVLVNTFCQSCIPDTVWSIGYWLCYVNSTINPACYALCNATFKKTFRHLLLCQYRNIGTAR
The experiment in a line: Alphascreen Surefire phospho-ERK1/2 functional assay, M4. Particulars: for EC50: phospho-ERK1/2, read-out: pEC50 M4 (converted); for Emax: CHO, read-out: M4 % Emax cf. ACh, CHO cells stably expressing human M4. The procedure, abridged: as §1

For assay [4], the target named is T4, human muscarinic M3 receptor (Homo sapiens, UniProt P20309).
T4 construct: expressed in transfected cells
In words: Alphascreen Surefire phospho-ERK1/2 functional assay, M3. The conditions noted are these: for EC50: CHO cells stably expressing human M3, phospho-ERK1/2, read-out: pEC50 M3 (converted); for Emax: CHO, read-out: M3 % Emax cf. ACh. In a few lines: as §1

The mark [5] stands for this setting: CHO cells stably expressing human M4.

T4 sequence (P20309 whole entry): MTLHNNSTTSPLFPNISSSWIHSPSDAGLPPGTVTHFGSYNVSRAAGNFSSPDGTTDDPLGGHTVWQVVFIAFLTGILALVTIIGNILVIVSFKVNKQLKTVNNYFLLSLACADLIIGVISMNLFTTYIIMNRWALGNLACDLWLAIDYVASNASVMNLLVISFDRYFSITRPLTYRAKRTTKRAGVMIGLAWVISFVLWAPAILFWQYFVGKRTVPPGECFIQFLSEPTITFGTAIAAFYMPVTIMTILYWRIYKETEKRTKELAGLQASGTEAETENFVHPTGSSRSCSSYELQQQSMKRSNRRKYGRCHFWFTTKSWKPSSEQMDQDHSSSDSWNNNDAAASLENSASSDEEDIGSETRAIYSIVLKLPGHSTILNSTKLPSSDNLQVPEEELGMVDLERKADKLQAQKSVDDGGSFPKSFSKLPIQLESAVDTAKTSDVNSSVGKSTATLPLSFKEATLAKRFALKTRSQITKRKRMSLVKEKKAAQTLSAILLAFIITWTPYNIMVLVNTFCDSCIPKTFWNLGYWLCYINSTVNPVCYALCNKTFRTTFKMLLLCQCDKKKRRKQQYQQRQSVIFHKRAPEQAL

For the molecule `CCc1noc([C@H]2CC[C@@H](NC3CCC(C#N)(c4ccccc4)CC3)C2)n1` (single isomer, unassigned) [19-2 Isomer 2], the EC50 is 191 nM in assay [1], 2400 nM in assay [2], 138 nM in assay [3] (setting [5]) and above 20000 nM in assay [4]. The Emax came out at 118% in assay [1], 35% in assay [2], 96% in assay [3] (Emax relative to ACh) and 5% in assay [4].
For `N#CC1(c2ccccc2)CCC(N2CC3(CC(c4nc(C(F)(F)F)no4)C3)C2)CC1` (single isomer, unassigned) [20-1 Isomer 2], the EC50 was 219 nM in assay [1], above 20000 nM in assay [2], 126 nM in assay [3] (setting [5]) and above 20000 nM in assay [4]. For the same molecule, the Emax worked out at 78% in assay [1], 61% in assay [2], 58% in assay [3] (Emax relative to ACh) and 30% in assay [4].
`Cc1noc(C2CC3(CCN(C4CCC(C#N)(c5ccccc5F)CC4)C3)C2)n1` (single isomer, unassigned) [21-2 Isomer 3]: the EC50 in assay [1] is 72.4 nM; in assay [2], above 20000 nM; in assay [3] (setting [5]), 61.7 nM; in assay [4] it was above 20000 nM. In addition, the Emax is 77% in assay [1], 16% in assay [2], 58% in assay [3] (Emax relative to ACh) and 15% in assay [4].
Consider `Cc1noc([C@@H]2CCCN(C3CCC4(CC3)C(=O)Nc3ccccc34)C2)n1` (single isomer, unassigned) [22-1 Isomer 1], for which the EC50 in assay [1] is 229 nM; in assay [2], above 20000 nM; in assay [3] (setting [5]), 398 nM; in assay [4] it was above 20000 nM. In addition, the Emax came to 83% in assay [1], 11% in assay [2], 47% in assay [3] (Emax relative to ACh) and 11% in assay [4].
Regarding `COc1ccc2c(c1)C1(CCC(N3CCC[C@@H](c4nc(C)no4)C3)CC1)C(=O)N2` (single isomer, unassigned) [22-2 Isomer 1], the EC50 is 70.8 nM in assay [1], above 20000 nM in assay [2], 537 nM in assay [3] (setting [5]) and above 20000 nM in assay [4]. Besides, the Emax is 55% in assay [1], 12% in assay [2], 42% in assay [3] (Emax relative to ACh) and 21% in assay [4].
As to `Cc1ccc2c(c1)C1(CCC(N3CCC[C@@H](c4nc(C)no4)C3)CC1)C(=O)N2` (single isomer, unassigned) [22-3 Isomer 1], the EC50 is 123 nM in assay [1], above 20000 nM in assay [2], 141 nM in assay [3] (setting [5]) and above 20000 nM in assay [4]. The maximum response (Emax) came out at 51% in assay [1], 17% in assay [2], 40% in assay [3] (Emax relative to ACh) and 59% in assay [4].
Turning to `Cc1ccc2c(c1)NC(=O)C21CCC(N2CCC[C@@H](c3nc(C)no3)C2)CC1` (single isomer, unassigned) [22-4 Isomer 1], the EC50 is 79.4 nM in assay [1], above 20000 nM in assay [2], 219 nM in assay [3] (setting [5]) and above 20000 nM in assay [4]. The Emax was 76% in assay [1], 20% in assay [2], 39% in assay [3] (Emax relative to ACh) and 17% in assay [4].
Turning to `O=C1Nc2ccccc2C12CCC(N[C@@H]1CC[C@H](c3nc(C(F)(F)F)no3)C1)CC2` (single isomer, unassigned) [24-1 Isomer 1], the EC50 in assay [1] is 219 nM; in assay [2], above 20000 nM; in assay [3] (setting [5]), 105 nM; in assay [4], above 20000 nM. Besides, the maximum response (Emax) in assay [1] came to 89%; in assay [2], 16%; in assay [3] (Emax relative to ACh), 62%; in assay [4], 23%.
On to `CCc1noc(C2CC3(C2)CN(C2CCC4(CC2)C(=O)Nc2ccccc24)C3)n1` (single isomer, unassigned) [25-1 Isomer 1], for which the EC50 in assay [1] was 617 nM; in assay [2] it was above 20000 nM; in assay [3] (setting [5]), 155 nM; in assay [4] it was above 20000 nM. Moreover, the Emax in assay [1] was found to be 43%; in assay [2] it was 13%; in assay [3] (Emax relative to ACh), 70%; in assay [4] it was 6%.
As to `Cc1ccc2c(c1)C1(CCC(N3CCC4(CC(c5nc(C)no5)C4)C3)CC1)C(=O)N2` (single isomer, unassigned) [26-1 Isomer 2], the EC50 was 15.1 nM in assay [1], above 20000 nM in assay [2], 40.7 nM in assay [3] (setting [5]) and above 20000 nM in assay [4]. Moreover, the Emax in assay [1] was determined as 74%; in assay [2] it was 22%; in assay [3] (Emax relative to ACh) it was 50%; in assay [4] it was 7%.
`COc1ccc2c(c1)C1(CCC(N3CCC4(CC(c5nc(C)no5)C4)C3)CC1)C(=O)N2` (single isomer, unassigned) [26-2 Isomer 1]: the EC50 was 16.2 nM in assay [1], above 20000 nM in assay [2], 81.3 nM in assay [3] (setting [5]) and above 20000 nM in assay [4]. Moreover, the Emax in assay [1] is 38%; in assay [2], 6%; in assay [4] it was 4%. The “M4 % Emax cf. ACh” value in assay [3] (CHO cells stably expressing human M4, Emax relative to ACh) turned out to be 35%.
On to `CCc1noc(C2CC3(CCN(C4CCC5(CC4)C(=O)Nc4ccccc45)C3)C2)n1` (single isomer, unassigned) [26-3 Isomer 1], for which the EC50 in assay [1] is 93.3 nM; in assay [2] it was above 20000 nM; in assay [3] (setting [5]) it was 28.8 nM; in assay [4], above 20000 nM. The Emax was 31% in assay [1], 11% in assay [2], 72% in assay [3] (Emax relative to ACh) and 19% in assay [4].
